Test results taken from article PMC6630718, “Discovery of Novel UV-Filters with Favorable Safety Profiles in the 5-Arylideneimidazolidine-2,4-dione Derivatives Group” (Molecules, 2019).

Columns and labels:
[1] = Ultraviolet spectroscopy in methanol solutions; format: physicochemical; settings: for Absorption Range: scan range 290–400 nm
Summary of the method: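 Spectra recorded from 290–400 nm in methanol (50 or 25 μM) in 1 cm quartz cuvettes. εmax taken as the slope of absorbance vs. concentration over 10–50 μM or 2.5–30 μM.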

[2] = Photostability in methanol solutions (solar light simulator); format: physicochemical; parameters: λmax pre-irradiation: unit not given beside the values; settings: methanol solution; for % of initial AUC post-irradiation / λmax post-irradiation: 1h irradiation at 500 W/m2
Summary of the method: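 Compounds at 25 or 50 µM in methanol, in stoppered quartz cuvettes, were irradiated 1 h at 500 W/m^2 (UV dose 218 kJ/m^2). A solar simulator filtered below 290 nm with an IR block was used. UV absorption spectra before and after irradiation were compared, with UPLC-MS/MS analysis, in duplicate.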

[3] = Ames MPF Penta 2 microplate mutagenicity assay, TA100; format: cell-based; settings: Salmonella typhimurium, read-out: FIB (fold induction over baseline)
Method: (§1) The assay is a liquid microplate modification of the traditional Salmonella test. During the procedure, bacteria are exposed to different concentrations of a test compound for 90 min in a medium containing sufficient histidine (S. typhimurium) or tryptophan (E. coli) to support cell divisions. Then, the cultures are diluted in pH indicator medium lacking histidine or tryptophan and aliquoted into 48 wells of a 384-well plate. Within 48 hours, cells that have undergone reversion to amino acid prototrophy will grow into colonies. Bacterial metabolism reduces pH of the medium, changing the color of that well from purple to yellow (https://www.xenometrix.ch).
(§2) The following strains were used in the study: S. typhimurium TA98, TA100, TA1535, TA1537 and E. coli wp2 uvrA[pKM101]. TA100, TA1535 and E. coli strains are used for the detection of base substitution mutations, whereas TA98 and TA1537 are utilized for the detection of frameshift mutations. S. typhimurium strains have GC base pairs, whereas E. coli strain has AT base pair at their primary reversion site and detect certain oxidizing mutagens, cross-linking agents and hydrazines.
(§3) The test procedure provided by Xenometrix (https://www.xenometrix.ch) and described earlier was followed. Briefly, the bacterial strains were grown overnight in exposure medium and exposed to test compounds 4g and 3b in 24-well plates for 90 min at 37 °C with agitation in the absence (–S9) or presence (+S9) of 4.5% phenobarbital/ β-naphthoflavone-induced rat liver S9. Compounds 4g and 3b were dissolved in DMSO and tested at final concentrations of 0.1, 0.2 and 0.5 mM. After the preincubation, the cultures were diluted in the indicator medium and the contents of each 24-well culture were distributed into 48 wells on a 384-well plate and incubated further for 48 h at 37 °C without agitation. After the exposure, the number of wells containing bacteria was scored by eye for yellow wells. Positive and negative controls were included in the assay, and all doses were done in triplicate.
(§4) Pure DMSO was used as the negative control.
(§5) The fold increase of revertants relative to the solvent control was determined by dividing the mean number of positive wells at each dose by the solvent control at baseline. The solvent control at baseline was defined as the mean number of positive wells in the solvent control plus one standard deviation (SD). When an increase of more than 2-fold relative to the baseline at more than one dose with a dose–response is observed the sample is classified as positive, whereas when no response >2 times the baseline and no dose–response is stated the sample is negative.

[4] = Ames MPF Penta 2 microplate mutagenicity assay, TA1535; settings: Salmonella typhimurium, FIB (fold induction over baseline)
Method: as §1, §2, §3, §4, §5

[5] = Ames MPF Penta 2 microplate mutagenicity assay, TA1537; settings: Salmonella typhimurium, FIB (fold induction over baseline)
Method: as §1, §2, §3, §4, §5

[6] = Ames MPF Penta 2 microplate mutagenicity assay, E. coli; format: cell-based; settings: Escherichia coli, read-out: FIB (fold induction over baseline)
Method: as §1, §2, §3, §4, §5

[7] = S. typhimurium TA100 without S9 (–S9), TA100, –S9, 0.1 mM
[8] = S. typhimurium TA100 without S9 (–S9), TA100, –S9, 0.2 mM
[9] = S. typhimurium TA100 without S9 (–S9), TA100, –S9, 0.5 mM
[10] = E. coli wp2 uvrA[pKM101] without S9 (–S9), E. coli WP2, –S9, 0.1 mM
[11] = E. coli wp2 uvrA[pKM101] without S9 (–S9), E. coli WP2, –S9, 0.2 mM
[12] = E. coli wp2 uvrA[pKM101] without S9 (–S9), E. coli WP2, –S9, 0.5 mM

Row | Structure (SMILES) | εmax [1] | λmax [1] | Absorption Range [1] | λmax pre-irradiation [2] | % of initial AUC post-irradiation [2] | λmax post-irradiation [2] | fold induction at 90 min, 0.1 mM [3, 7] | fold induction at 90 min, 0.2 mM [3, 8] | fold induction at 90 min, 0.5 mM [3, 9] | fold induction at 90 min, 0.1 mM ([3]; TA100, +S9, 0.1 mM) | fold induction at 90 min, 0.2 mM ([3]; TA100, +S9, 0.2 mM) | fold induction at 90 min, 0.5 mM ([3]; TA100, +S9, 0.5 mM) | fold induction at 90 min, 0.1 mM ([4]; TA1535, +S9, 0.1 mM) | fold induction at 90 min, 0.2 mM ([4]; TA1535, +S9, 0.2 mM) | fold induction at 90 min, 0.5 mM ([4]; TA1535, +S9, 0.5 mM) | fold induction at 90 min, 0.1 mM ([4]; TA1535, –S9, 0.1 mM) | fold induction at 90 min, 0.2 mM ([4]; TA1535, –S9, 0.2 mM) | fold induction at 90 min, 0.5 mM ([4]; TA1535, –S9, 0.5 mM) | fold induction at 90 min, 0.1 mM ([5]; TA1537, +S9, 0.1 mM) | fold induction at 90 min, 0.2 mM ([5]; TA1537, +S9, 0.2 mM) | further results
1 | CCOC(=O)CN1C(=O)/C(=C/C=C/c2ccc(OC)cc2)N(CC(=O)OCC)C1=O [Compound 4g, Diethyl 2,2′-((Z)-4-((E)-3-(4-methoxyphenyl)allylidene)-2,5-dioxoimidazolidine-1,3-diyl)diacetate] | 54996 M⁻¹ cm⁻¹ | 379 nm | 290–400 nm | 379 | 80.15% | 378 | 1.1 | 0.3 | 0.6 | 0.7 | 0.5 | 0.5 | 0.3 | 0.7 | 0.3 | 0.3 | 1.4 | 0.6 | 1.4 | 1.1 | decrease of AUC after irradiation [2]: 19.9%; fold induction at 90 min, 0.5 mM ([5]; TA1537, +S9, 0.5 mM): 0.8; fold induction at 90 min, 0.1 mM ([5]; TA1537, –S9, 0.1 mM): 0.3; fold induction at 90 min, 0.2 mM ([5]; TA1537, –S9, 0.2 mM): 1.7; fold induction at 90 min, 0.5 mM ([5]; TA1537, –S9, 0.5 mM): 0.5; fold induction at 90 min, 0.1 mM [6, 10]: 0.3; fold induction at 90 min, 0.2 mM [6, 11]: 1.3; fold induction at 90 min, 0.5 mM [6, 12]: 1.3; fold induction at 90 min, 0.1 mM ([6]; E. coli WP2, +S9, 0.1 mM): 0.6; fold induction at 90 min, 0.2 mM ([6]; E. coli WP2, +S9, 0.2 mM): 1; fold induction at 90 min, 0.5 mM ([6]; E. coli WP2, +S9, 0.5 mM): 0.7
2 | CCOC(=O)CN1C(=O)/C(=C/c2ccc(OC)cc2)N(CC(=O)OCC)C1=O [Compound 3b, Diethyl 2,2′-((Z)-4-(4-methoxybenzylidene)-2,5-dioxoimidazolidine-1,3-diyl)diacetate] | 16310 M⁻¹ cm⁻¹ | 318 nm | 290–362 nm | 318 | 114.39% | 326 | 1.1 | 0.8 | 0.7 | 0.7 | 0.6 | 0.6 | 0.5 | 0.1 | 0.1 | 0.8 | 0.6 | 1.7 | 1.1 | 1.1 | percentage of photoisomer formation ([2]; post-irradiation chromatogram): 28.4%; fold induction at 90 min, 0.5 mM ([5]; TA1537, +S9, 0.5 mM): 0.3; fold induction at 90 min, 0.1 mM ([5]; TA1537, –S9, 0.1 mM): 0.3; fold induction at 90 min, 0.2 mM ([5]; TA1537, –S9, 0.2 mM): 0.3; fold induction at 90 min, 0.5 mM ([5]; TA1537, –S9, 0.5 mM): 0.3; fold induction at 90 min, 0.1 mM [6, 10]: 0.3; fold induction at 90 min, 0.2 mM [6, 11]: 0.7; fold induction at 90 min, 0.5 mM [6, 12]: 0.3; fold induction at 90 min, 0.1 mM ([6]; E. coli WP2, +S9, 0.1 mM): 0.7; fold induction at 90 min, 0.2 mM ([6]; E. coli WP2, +S9, 0.2 mM): 0.6; fold induction at 90 min, 0.5 mM ([6]; E. coli WP2, +S9, 0.5 mM): 0.4
